Laboratory results as given in patent publication US20240148821A1, “PHARMACEUTICAL USE OF CYCLIC PEPTIDE COMPOUND” (CHUGAI SEIYAKU KABUSHIKI KAISHA, priority 2021, published 2024).
Bridge positions count the residues as written; N and C are the ends. Square brackets hold non-standard residues; d marks the D form. Peptide text beside a SMILES is read from it. * marks the point of attachment. hPhe(3-Cl-4-CF3) = N[C@@H](CCc1ccc(C(F)(F)F)c(Cl)c1)C(=O)O; hPhe(3-F,4-CF3) = N[C@@H](CCc1ccc(C(F)(F)F)c(F)c1)C(=O)O; NMePhe(4-CF3) = CN[C@@H](Cc1ccc(C(F)(F)F)cc1)C(=O)O; Piperazinyl(4-(3-oxetanyl)) = C1OCC1N1CCN(*)CC1; NMePhe(4-Me) = CN[C@@H](Cc1ccc(C)cc1)C(=O)O; NMeGly(cPent) = CN[C@H](C(=O)O)C1CCCC1; Phe(3-I) = N[C@@H](Cc1cccc(I)c1)C(=O)O; NMeCha = CN[C@@H](CC1CCCCC1)C(=O)O; NMeI = CC[C@H](C)[C@H](NC)C(=O)O; NMeD = CN[C@@H](CC(=O)O)C(=O)O; NMeL = CN[C@@H](CC(C)C)C(=O)O; hLeu = CC(C)CC[C@H](N)C(=O)O; NMeV = CN[C@H](C(=O)O)C(C)C; d(β3hA) = C[C@@H](N)CC(=O)O; NMeA = CN[C@@H](C)C(=O)O; NMeAib = CNC(C)(C)C(=O)O; Nle = CCCC[C@H](N)C(=O)O; Piperidide = C1CCN(*)CC1; Ac5c = NC1(C(=O)O)CCCC1; Aze = O=C(O)[C@@H]1CCN1; NPrGly = CCCNCC(=O)O; Sar = CNCC(=O)O

System: Human pancreatic cancer cell line AsPC-1 (G12D mutation Kras)
Experiment: AsPC-1 cell growth inhibition (AsPC-1 CGI)
Type: cell-based
Conditions: read-out: AsPC-1 cell growth inhibition, 50% growth inhibitory concentration (IC50 value); 96 hours, CellTiter-Glo, values classified in ranges
Protocol: Test compounds were serially dilated with dimethyl sulfoxide, and 200 nL was then dispensed to a U-bottom 96-well plate using Labcyte Echo. […] The cell suspension was dispensed to a. plate containing a test compound at 100 μL per well and incubated at 37° C. in a 5% carbon dioxide gas incubator. 96 hours later, 80 μL of CellTiter-Glo (Promega) was added to each well and fluorescence was measured.

Q: `CC[C@H](C)[C@@H]1NC(=O)[C@H](CC(C)C)N(C)C(=O)C[C@@H](C(=O)N2CCCCC2)N(C)C(=O)[C@H]([C@@H](C)CC)N(C)C(=O)C2(CCCC2)NC(=O)[C@@H]2CCCN2C(=O)[C@H](CCc2ccc(C(F)(F)F)c(Cl)c2)NC(=O)CN(C)C(=O)[C@H](Cc2ccc(C(F)(F)F)cc2)N(C)C(=O)[C@@H]2CCN2C(=O)[C@H](C)N(C)C1=O` [Compound 630] ([NMeL]I[NMeA][Aze][NMePhe(4-CF3)][Sar][hPhe(3-Cl-4-CF3)]P[Ac5c][NMeI][NMeD]-Piperidide; lactam N-11) was tested. Which IC50 did it give?
A: Its IC50 is no more than 20 nM.

Q: For `Cc1ccc(C[C@H]2C(=O)N(C)CC(=O)N[C@@H](CCc3ccc(C(F)(F)F)c(Cl)c3)C(=O)N3CCC[C@H]3C(=O)NC3(CCCC3)C(=O)N(C)[C@@H](C3CCCC3)C(=O)N[C@H](C)CC(=O)N(C)[C@@H](CC(C)C)C(=O)N[C@@H](C)C(=O)N(C)[C@@H](C)C(=O)N3CC[C@H]3C(=O)N2C)cc1` [Compound 1225] (cyclo(A[NMeA][Aze][NMePhe(4-Me)][Sar][hPhe(3-Cl-4-CF3)]P[Ac5c][NMeGly(cPent)][d(β3hA)][NMeL])), which IC50 is on record?
A: The IC50 was greater than 500 nM.

Q: With `CCCN1CC(=O)N(C)[C@@H](CC2CCCCC2)C(=O)N(C)CC(=O)N[C@@H](CCc2ccc(C(F)(F)F)c(Cl)c2)C(=O)N2CCC[C@H]2C(=O)NC2(CCCC2)C(=O)N(C)[C@@H](C(C)C)C(=O)N[C@H](C)CC(=O)N(C)[C@@H](CC(C)C)C(=O)N[C@@H]([C@@H](C)CC)C(=O)N(C)CC1=O` [Compound 405] (cyclo([Ac5c][NMeV][d(β3hA)][NMeL]I[Sar][NPrGly][NMeCha][Sar][hPhe(3-Cl-4-CF3)]P)) as the compound, how does the IC50 read?
A: Its IC50 is greater than 500 nM.

Q: How did the IC50 turn out when `CC[C@H](C)[C@@H]1NC(=O)[C@H](CC(C)C)N(C)C(=O)C[C@@H](C(=O)N2CCN(C3COC3)CC2)NC(=O)[C@H](C(C)C)N(C)C(=O)C2(CCCC2)NC(=O)[C@@H]2CCCN2C(=O)[C@H](CCc2ccc(C(F)(F)F)c(Cl)c2)NC(=O)CN(C)C(=O)[C@H](CC2CCCCC2)N(C)C(=O)[C@@H]2CCN2C(=O)[C@H](C)N(C)C1=O` [Compound 1294] ([NMeL]I[NMeA][Aze][NMeCha][Sar][hPhe(3-Cl-4-CF3)]P[Ac5c][NMeV]D-{Piperazinyl(4-(3-oxetanyl))}; lactam N-11) was run?
A: The IC50 was greater than 500 nM.

Q: How did the IC50 turn out when `CC[C@H](C)[C@@H]1NC(=O)[C@H](CC(C)C)N(C)C(=O)C[C@@H](C(=O)N(C)C)N(C)C(=O)[C@H](C2CCCC2)N(C)C(=O)C2(CCCC2)NC(=O)[C@@H]2CCCN2C(=O)[C@H](CCc2ccc(C(F)(F)F)c(Cl)c2)NC(=O)CN(C)C(=O)[C@H](CC2CCCCC2)N(C)C(=O)CN(C)C(=O)CN(C)C1=O` [Compound 1659] ([NMeL]I[Sar][Sar][NMeCha][Sar][hPhe(3-Cl-4-CF3)]P[Ac5c][NMeGly(cPent)][NMeD]-NMe2; lactam N-11) was run?
A: The IC50 was no more than 20 nM.

Q: Which IC50 does the source give for `CCCC[C@@H]1NC(=O)[C@H](Cc2cccc(I)c2)NC(=O)CN(C)C(=O)[C@H](Cc2ccc(C(F)(F)F)cc2)N(C)C(=O)CN(C)C(=O)CN(C)C(=O)[C@H]([C@@H](C)CC)NC(=O)[C@H](CC(C)C)N(C)C(=O)C[C@@H](C(=O)N2CCCCC2)N(C)C(=O)[C@H](CCC(C)C)NC(=O)C(C)(C)N(C)C1=O` [Compound 1433] ([NMeL]I[Sar][Sar][NMePhe(4-CF3)][Sar][Phe(3-I)][Nle][NMeAib][hLeu][NMeD]-Piperidide; lactam N-11) here?
A: The IC50 was greater than 500 nM.

Q: For `CC[C@H](C)[C@@H]1NC(=O)[C@H](CC(C)C)N(C)C(=O)C[C@@H](C(=O)N2CCCCC2)NC(=O)[C@H](CC(C)C)N(C)C(=O)C2(CCCC2)NC(=O)[C@@H]2CCCN2C(=O)[C@H](CCc2ccc(C(F)(F)F)c(F)c2)NC(=O)CN(C)C(=O)[C@H](CC2CCCCC2)N(C)C(=O)CN(C)C(=O)CN(C)C1=O` [Compound 298] ([NMeL]I[Sar][Sar][NMeCha][Sar][hPhe(3-F,4-CF3)]P[Ac5c][NMeL]D-Piperidide; lactam N-11), which IC50 is on record?
A: Its IC50 is greater than 500 nM.

Q: How did the IC50 turn out when `CC[C@H](C)[C@@H]1NC(=O)[C@H](CC(C)C)N(C)C(=O)C[C@@H](C(=O)N2CCCCC2)N(C)C(=O)[C@H](CC(C)C)NC(=O)C(C)(C)N(C)C(=O)[C@H](Cc2ccc(OC)cc2)NC(=O)[C@H](Cc2cccc(I)c2)NC(=O)CN(C)C(=O)[C@H](Cc2ccc(C)cc2)N(C)C(=O)[C@@H]2CCN2C(=O)[C@H](C)N(C)C1=O` [Compound 703] ([NMeL]I[NMeA][Aze][NMePhe(4-Me)][Sar][Phe(3-I)]Y(Me)[NMeAib]L[NMeD]-Piperidide; lactam N-11) was run?
A: Its IC50 is greater than 500 nM.

Q: For `CC[C@H](C)[C@@H]1NC(=O)[C@H](CC(C)C)N(C)C(=O)C[C@@H](C(=O)N(C)C)N(C)C(=O)[C@H]([C@@H](C)CC)N(C)C(=O)C2(CCCC2)NC(=O)[C@@H](C)NC(=O)[C@H](CCc2ccc(C(F)(F)F)c(Cl)c2)NC(=O)CN(C)C(=O)[C@H](Cc2ccc(C)cc2)N(C)C(=O)[C@@H]2CCN2C(=O)[C@H](C)N(C)C1=O` [Compound 67] ([NMeL]I[NMeA][Aze][NMePhe(4-Me)][Sar][hPhe(3-Cl-4-CF3)][dA][Ac5c][NMeI][NMeD]-NMe2; lactam N-11), which IC50 is on record?
A: Its IC50 is greater than 500 nM.
